Data reported in patent US20250109119A1, “AMPK AGONISTS AND METHODS OF USE THEREOF” (Evvia Therapeutics, Inc., priority 2023, published 2025).

Tested on: AMPK
Experiment: EC50 data of compounds of the disclosure (Table A; AMPK agonists)
Format: biochemical
Settings: Table A '>10 μM'; cells list compound numbers

SMILES | EC50 [µM]
COc1nc(N(C)C)ccc1-c1cc2c(C(=O)NOc3ccccc3)c[nH]c2cc1Cl [compound 1012, 6-chloro-5-(6-(dimethylamino)-2-methoxypyridin-3-yl)-N-phenoxy-1H-indole-3-carboxamide] | > 10
CCOc1nc(N(C)C)ccc1-c1cc2c(C(=O)NOC)c[nH]c2cc1Cl [compound 1020, 6-chloro-5-(6-(dimethylamino)-2-ethoxypyridin-3-yl)-N-methoxy-1H-indole-3-carboxamide] | > 10
CONC(=O)c1c[nH]c2cc(Cl)c(-c3ccc(N(C)C)nc3C(F)(F)F)cc12 [compound 1021, 6-chloro-5-(6-(dimethylamino)-2-(trifluoromethyl)pyridin-3-yl)-N-methoxy-1H-indole-3-carboxamide] | > 10
CONS(=O)(=O)c1c[nH]c2cc(Cl)c(-c3ccc(N(C)C)nc3OC)cc12 [compound 1028, 6-chloro-5-(6-(dimethylamino)-2-methoxypyridin-3-yl)-N-methoxy-1H-indole-3-sulfonamide] | > 10
CONC(=O)c1c[nH]c2cc(Cl)c(-c3ccc(N(C)C)nc3O)cc12 [compound 1041] | > 10
CONC(=O)c1c[nH]c2cc(Cl)c(-c3ccc(N4CCC(C)CC4)nc3OC)cc12 [compound 1049] | > 10
CONC(=O)c1c[nH]c2cc(Cl)c(-c3ccc(N4CC5(CCC5)C4)nc3OC)cc12 [compound 1050] | > 10
COCCN(C)c1ccc(-c2cc3c(C(=O)NOC)c[nH]c3cc2Cl)c(OC)n1 [compound 1051] | > 10
CONC(=O)c1c[nH]c2cc(Cl)c(-c3ccc(N(C)CCOC(C)C)nc3OC)cc12 [compound 1052] | > 10
CONC(=O)c1c[nH]c2cc(Cl)c(-c3ccc(N(C)CC4CCC4)nc3OC)cc12 [compound 1054] | > 10
CONC(=O)c1c[nH]c2cc(Cl)c(-c3ccc(N4CCC(F)(F)CC4)nc3OC)cc12 [compound 1058] | > 10
COc1nc(N(C)C)ccc1-c1cc2c(C(=O)NOCCN(C)C)c[nH]c2cc1Cl [compound 1060] | > 10
CONC(=O)c1c[nH]c2cc(Cl)c(-c3ccc(N(C)CCCN(C)C)nc3OC)cc12 [compound 1064] | > 10
CCN(CC)c1ccc(-c2cc3c(C(=O)NOC)c[nH]c3cc2Cl)c(OC)n1 [compound 1074] | > 10
CCONC(=O)c1c[nH]c2cc(Cl)c(-c3ccc(N(CC)CC)nc3OC)cc12 [compound 1075] | > 10
CCONC(=O)c1c[nH]c2cc(Cl)c(-c3ccc(N(C)C)nc3OC)nc12 [compound 1090] | > 10
CCONC(=O)c1c[nH]c2cc(Cl)c(-c3ccc(C#N)cc3OC)cc12 [compound 1097] | > 10
CCONC(=O)c1c[nH]c2cc(Cl)c(-c3ccc(C4(O)CCC4)nc3)cc12 [compound 1099] | > 10
CCc1cc(N(C)C)ccc1-c1cc2c(C(=O)NOC)c[nH]c2cc1Cl [compound 1100] | > 10
CCONC(=O)c1c[nH]c2cc(Cl)c(-c3ccc(C4(CO)CC4)nc3)cc12 [compound 1101] | > 10
CONS(=O)(=O)c1c[nH]c2cc(Cl)c(-c3ccc(C4CCCCO4)cc3)cc12 (stereo not shown) [compound 1109, 6-chloro-N-methoxy-5-(4-(tetrahydro-2H-pyran-2-yl)phenyl)-1H-indole-3-sulfonamide] | > 10
CONS(=O)(=O)c1c[nH]c2cc(Cl)c(-c3ccc(-c4ccccc4)cc3)cc12 [compound 1110, 5-([1,1′-biphenyl]-4-yl)-6-chloro-N-methoxy-1H-indole-3-sulfonamide] | > 10

Same assay, conditions: Table A column head '<100 nM'; cells list compound numbers

SMILES | EC50 [µM]
CONC(=O)c1c[nH]c2cc(Cl)c(-c3ccc(N(C)C)nc3OC)cc12 [compound 1003, 6-chloro-5-(6-(dimethylamino)-2-methoxypyridin-3-yl)-N-methoxy-1H-indole-3-carboxamide] | < 0.1
CONC(=O)c1c[nH]c2cc(F)c(-c3ccc(C4CCCCO4)cc3)c(F)c12 (stereo not shown) [compound 1007, 4,6-difluoro-N-methoxy-5-(4-(tetrahydro-2H-pyran-2-yl)phenyl)-1H-indole-3-carboxamide] | < 0.1

Tested on: not listed separately
Experiment: Blood Brain Barrier (BBB) data, brain/plasma ratio (Table B)
Format: in vivo
Settings: brain and plasma; calculated at a 3 hr time point; Table B column heads <0.1, 0.1-1, >1; cells list compound numbers
Procedure: Blood Brain Barrier (BBB) data was evaluated for compounds of the disclosure and the values are shown in Table B. Brain/plasma ratio was calculated at a 3 hr time point).

SMILES | Kp at 3 h
COc1nc(N(C)C)ccc1-c1cc2c(C(=O)NO)c[nH]c2cc1Cl [compound 1001, 6-chloro-5-(6-(dimethylamino)-2-methoxypyridin-3-yl)-N-hydroxy-1H-indole-3-carboxamide] | < 0.1
CONC(=O)c1c[nH]c2cc(Cl)c(-c3ccc(N(C)C)nc3OC)cc12 [compound 1003, 6-chloro-5-(6-(dimethylamino)-2-methoxypyridin-3-yl)-N-methoxy-1H-indole-3-carboxamide] | > 1
CCONC(=O)c1c[nH]c2cc(Cl)c(-c3ccc(N(C)C)nc3OC)cc12 [compound 1009, 6-chloro-5-(6-(dimethylamino)-2-methoxypyridin-3-yl)-N-ethoxy-1H-indole-3-carboxamide] | 0.1 to 1
COCCONC(=O)c1c[nH]c2cc(Cl)c(-c3ccc(N(C)C)nc3OC)cc12 [compound 1011, 6-chloro-5-(6-(dimethylamino)-2-methoxypyridin-3-yl)-N-(2-methoxyethoxy)-1H-indole-3-carboxamide] | 0.1 to 1
COc1nc(N(C)C)ccc1-c1cc2c(C(=O)NOCC3CC3)c[nH]c2cc1Cl [compound 1015, 6-chloro-N-(cyclopropylmethoxy)-5-(6-(dimethylamino)-2-methoxypyridin-3-yl)-1H-indole-3-carboxamide] | 0.1 to 1
COCCONC(=O)c1c[nH]c2cc(Cl)c(-c3ccc(C4(O)CCC4)cc3)cc12 [compound 1045] | < 0.1
CONC(=O)C(=O)c1c[nH]c2cc(Cl)c(-c3ccc(N(C)C)nc3OC)cc12 [compound 1077, 2-(6-chloro-5-(6-(dimethylamino)-2-methoxypyridin-3-yl)-1H-indol-3-yl)-N-methoxy-2-oxoacetamide] | < 0.1
CCONC(=O)C(=O)c1c[nH]c2cc(Cl)c(-c3ccc(N(C)C)nc3OC)cc12 [compound 1081] | < 0.1
OCC1(c2ccc(-c3cc4c(-c5nnn[nH]5)c[nH]c4cc3Cl)s2)CC1 [compound 1084] | < 0.1
CS(=O)(=O)NC(=O)c1c[nH]c2cc(Cl)c(-c3ccc(-c4ccccc4)cc3)cc12 [compound 1112] | < 0.1
